Measured values taken from US20250221966A1, “RXFP1 AGONISTS” (BRISTOL-MYERS SQUIBB COMPANY, priority 2021, published 2025).

These molecules were tested against T1, human RXFP1 (Homo sapiens, UniProt Q9HBX9) (assay: RXFP1 cAMP assay (hRXFP1 HEK293 cAMP assay, HTRF)). Settings: HEK293 cells stably expressing human RXFP1, 30 min at room temperature, read-out: cAMP hRXFP1 HEK293 Assay EC50.
T1 construct: expressed in transfected cells
T1 sequence (Q9HBX9 1-757): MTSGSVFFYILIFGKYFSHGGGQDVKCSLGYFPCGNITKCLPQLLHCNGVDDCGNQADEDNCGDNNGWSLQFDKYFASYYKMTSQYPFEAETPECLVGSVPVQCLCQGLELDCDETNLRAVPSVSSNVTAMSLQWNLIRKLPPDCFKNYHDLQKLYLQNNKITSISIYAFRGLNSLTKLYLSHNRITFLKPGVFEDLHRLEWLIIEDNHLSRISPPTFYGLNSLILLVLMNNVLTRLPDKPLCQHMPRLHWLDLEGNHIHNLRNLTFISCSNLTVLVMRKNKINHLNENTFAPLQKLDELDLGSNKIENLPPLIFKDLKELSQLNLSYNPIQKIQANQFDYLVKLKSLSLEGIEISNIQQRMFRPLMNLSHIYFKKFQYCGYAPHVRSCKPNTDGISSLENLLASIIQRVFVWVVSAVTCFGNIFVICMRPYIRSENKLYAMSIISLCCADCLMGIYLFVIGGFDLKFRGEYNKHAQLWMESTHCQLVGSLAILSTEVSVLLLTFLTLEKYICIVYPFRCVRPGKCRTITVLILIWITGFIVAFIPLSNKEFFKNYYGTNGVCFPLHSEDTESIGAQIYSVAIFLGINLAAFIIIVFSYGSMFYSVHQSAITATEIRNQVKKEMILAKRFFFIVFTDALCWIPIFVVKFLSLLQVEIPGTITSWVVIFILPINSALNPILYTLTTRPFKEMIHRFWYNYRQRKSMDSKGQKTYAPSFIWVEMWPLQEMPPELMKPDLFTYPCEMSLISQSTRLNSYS
Type: cell-based
Method: RXFP1 Cyclic Adenosine Monophosphate (cAMP) Assays. […] Cells were dissociated and suspended in assay buffer. The assay buffer was HBSS buffer (with calcium and magnesium) containing 20 mM HEPES, 0.05% BSA, and 0.5 mM IBMX. Cells (3000 cells per well, except 1500 cell per well for HEK293 cells stably expressing human RXFP1) were added to 384-well Proxiplates (Perkin-Elmer). Cells were immediately treated with test compounds in DMSO (2% final) at final concentrations in the range of 0.010 nM to 50 μM. Cells were incubated for 30 min at room temperature. The level of intracellular cAMP was determined using the HTRF HiRange cAMP assay reagent kit (Cisbio) according to manufacturer's instructions. Solutions of cryptate conjugated anti-cAMP and d2 fluorophore-labelled cAMP were made in a supplied lysis buffer separately. Upon completion of the reaction, the cells were lysed with equal volume of the d2-cAMP solution and anti-cAMP solution. […] The potency and activity of a compound to […] cAMP production was then determined by fitting to a 4-parametric logistic equation from a plot of cAMP level versus compound concentrations.
COc1c(F)cc(C2=NOC3CC(CO)CC23)cc1C(=O)N[C@H]1[C@@H](C(=O)N[C@H](C)C2(C)CC2(F)F)[C@H]2CC[C@@H]1/C2=C\C1CC1 (stereo partly drawn) [compound 756] was tested, and the EC50 was 0.4 nM. O=C(N[C@H]1[C@@H](C(=O)Nc2ccc(F)c(C(F)(F)F)c2)[C@H]2CC[C@@H]1/C2=C\C1CC1)c1cc(C2=NOC3CC(CO)CC23)ccc1OCCCF (stereo partly drawn) [compound 788] gave an EC50 of 4.3 nM. In the case of COc1ccc(-c2cccn3c(C(=O)OCc4ccccc4)cnc23)cc1C(=O)N[C@@H]1C2CCC(/C2=C/C(F)(F)F)[C@@H]1C(=O)Nc1ccc(F)c(C(F)(F)F)c1 (stereo partly drawn) [compound 315], the EC50 is reported as 60 nM. COc1c(F)cc(C2=NOC3CC(CO)CC23)cc1C(=O)N[C@H]1[C@@H](C(=O)N[C@H](C)C2(C)CC2)[C@H]2CC[C@@H]1/C2=C\C1CC1 (stereo partly drawn) [compound 757] was tested, and the EC50 was 0.9 nM. With COc1ccc(-c2cc(C(OC(=O)Nc3ccccc3)C(=O)O)ccc2F)cc1C(=O)N[C@@H]1C2CCC(/C2=C/C(F)(F)F)[C@@H]1C(=O)Nc1ccc(F)c(C(F)(F)F)c1 (stereo partly drawn) [compound 205] the EC50 was 1 nM. With COc1ccc(-c2cc(C(O)C(=O)O)ccc2F)cc1C(=O)N[C@H]1[C@@H](C(=O)Nc2ccc(F)c(C(F)(F)F)c2)[C@H]2CC[C@@H]1/C2=C\CC1CC(F)(F)C1 (stereo partly drawn) [Example 352, 2-(3′-(((1R,2R,3S,4R,Z)-7-(2-(3,3-difluorocyclobutyl)ethylidene)-3-((4-fluoro-3-(trifluoromethyl)phenyl)carbamoyl)bicyclo[2.2.1]heptan-2-yl)carbamoyl)-6-fluoro-4′-methoxy-[1,1′-biphenyl]-3-yl)-2-hydroxyacetic acid] the EC50 was 64 nM. COc1c(F)cc(C2=NOC3CC(O)CC23)cc1C(=O)N[C@H]1[C@@H](C(=O)Nc2ccc(F)c(C(F)(F)F)c2)[C@H]2CC[C@@H]1/C2=C\C1CCCC1 (stereo partly drawn) [compound 868] showed an EC50 of 3.8 nM. In the case of CCOC(=O)c1ccnn1-c1ccc(OC)c(C(=O)N[C@@H]2C3CCC(/C3=C/C(F)(F)F)[C@@H]2C(=O)Nc2ccc(F)c(C(F)(F)F)c2)c1 (stereo partly drawn) [compound 344], the EC50 is reported as 757 nM. Molecule COc1ccc(C2=NO[C@H]3CC(CO)C[C@@H]23)cc1C(=O)N[C@H]1[C@@H](C(=O)Nc2ccc(F)c(C(F)(F)F)c2)[C@H]2CC[C@@H]1/C2=C\C1CC(F)(F)C1 (stereo partly drawn) [compound 840] has an EC50 of 4.5 nM. For COc1ccc(C2CC(O)C(=O)N2C)cc1C(=O)N[C@@H]1C2CCC(/C2=C/C2CC2)[C@@H]1C(=O)Nc1ccc(F)c(C(F)(F)F)c1 (single isomer, unassigned) [Example 414], the EC50 was 364 nM. With COc1ccc(N2CCCC(CO)C2)cc1C(=O)N[C@@H]1C2CCC(/C2=C/C2CC2)[C@@H]1C(=O)Nc1ccc(F)c(C(F)(F)F)c1 (single isomer, unassigned) [compound 704] the EC50 was 1300 nM. CNC(=O)OC(c1ccc(F)c(-c2ccc(OC)c(C(=O)N[C@@H]3C4CCC(/C4=C/C4CC4)[C@@H]3C(=O)Nc3ccc(F)c(C(F)(F)F)c3)c2)c1)C(F)(F)F (stereo partly drawn) [compound 212] gave an EC50 of 1 nM. Molecule COc1ccc(-c2cc(C(OC(=O)Nc3ccccc3)C(=O)O)ccc2F)cc1C(=O)N[C@@H]1C2CCC(/C2=C/C2CC2)[C@@H]1C(=O)Nc1ccc(F)c(C(F)(F)F)c1 (stereo partly drawn) [Example 177] has an EC50 of 5 nM. COc1cc(F)c(F)cc1C(=O)N[C@@H]1C2CCC(C2Cc2ccccc2)[C@@H]1C(=O)Nc1ccc(F)c(C(F)(F)F)c1 (stereo partly drawn) [compound 976] showed an EC50 of 710 nM. Work on COc1c(F)cc(C2=NOC3CC(O)(C(F)(F)F)CC23)cc1C(=O)N[C@H]1[C@@H](C(=O)N[C@H](C)C2(C)CC2)[C@H]2CC[C@@H]1/C2=C\c1cnc(C(F)(F)F)s1 (stereo partly drawn) [compound 917] yielded an EC50 of 1.3 nM. With COc1ccc(C2=NO[C@H]3C[C@H](CO)C[C@@H]23)cc1C(=O)N[C@H]1[C@@H](C(=O)Nc2ccc(F)c(C(F)(F)F)c2)[C@H]2CC[C@@H]1/C2=C\CC(O)C(F)(F)F (stereo partly drawn) [compound 826] the EC50 was 3 nM. Work on COc1ccc(C2=NOC3COCC23)cc1C(=O)N[C@H]1[C@@H](C(=O)NC(C)(C)C(C)(C)C)[C@H]2CC[C@@H]1/C2=C\C1CC1 (stereo partly drawn) [compound 508] yielded an EC50 of 13 nM. Molecule COc1cc(F)c(F)cc1C(=O)N[C@@H]1C2CCC(/C2=C/c2ccccc2)[C@@H]1C(=O)Nc1cccc(S(C)(=O)=O)c1 (stereo partly drawn) [compound 139] has an EC50 of 550 nM. COc1ccc(C2=NOC3COCC23)cc1C(=O)N[C@H]1[C@@H](C(=O)N[C@H](C)C2CCCC2)[C@H]2CC[C@@H]1/C2=C\C1CC1 (stereo partly drawn) [compound 535] showed an EC50 of 24 nM. Work on COc1ccc(-c2cc(C(=O)O)ccc2F)cc1C(=O)N[C@@H]1C2CCC(/C2=C/C2CC2)[C@@H]1C(=O)NC1CC(F)(F)C1 (stereo partly drawn) [compound 304] yielded an EC50 of 1710 nM. With C=C/C=C1\C2CCC1[C@H](C(=O)Nc1ccc(F)c(C(F)(F)F)c1)[C@@H]2NC(=O)c1cc(-c2cc(C(=O)NC)ccc2F)ccc1OC (stereo partly drawn) [compound 164] the EC50 was 14 nM. Work on COc1cc(F)c(C2=NOC3COCC23)cc1C(=O)N[C@@H]1C2CCC(/C2=C/C2CC2)[C@@H]1C(=O)Nc1ccc(F)c(C(F)(F)F)c1 (stereo partly drawn) [compound 420] yielded an EC50 of 1 nM. COc1ccc(C2=NOC3CC(C(N)=O)CC23)cc1C(=O)N[C@H]1[C@@H](C(=O)NCC(C)(C)C)[C@H]2CC[C@@H]1/C2=C\C1CC1 (stereo partly drawn) [compound 516] gave an EC50 of 17.6 nM. For CNC(=O)OC(C(=O)O)c1ccc(F)c(-c2ccc(OC)c(C(=O)N[C@@H]3C4CCC(/C4=C/C(F)(F)F)[C@@H]3C(=O)Nc3ccc(F)c(C(F)(F)F)c3)c2)c1 (stereo partly drawn) [compound 180], the EC50 was 5 nM. For COc1ccc([C@@H]2CO[C@H]3[C@@H]2OC[C@H]3O)cc1C(=O)N[C@H]1[C@@H](C(=O)Nc2ccc(F)c(C(F)(F)F)c2)[C@H]2CC[C@@H]1/C2=C\C1CC1 [compound 620], the EC50 was 163 nM. Work on COc1ccc(C2=NOC3COCC23)cc1C(=O)N[C@H]1[C@@H](C(=O)NC2(C#N)CCCC2)[C@H]2CC[C@@H]1/C2=C\C1CC1 (stereo partly drawn) [compound 476] yielded an EC50 of 6.1 nM. Molecule COc1ccc(C2=NOC3CC(C(O)C(F)(F)F)CC23)cc1C(=O)N[C@H]1[C@@H](C(=O)Nc2ccc(F)c(C(F)(F)F)c2)[C@H]2CC[C@@H]1/C2=C\C1CC1 (single isomer, unassigned) [Example 489] has an EC50 of 8.5 nM. In the case of COc1ccc(-c2cnc3n2CCC3O)cc1C(=O)N[C@H]1[C@@H](C(=O)Nc2ccc(F)c(C(F)(F)F)c2)[C@H]2CC[C@@H]1/C2=C\C1CC1 (stereo partly drawn) [compound 754], the EC50 is reported as 3.6 nM. For COc1ccc(C2=NOC(CO)C2)cc1C(=O)N[C@@H]1C2CCC(/C2=C/C2CC2)[C@@H]1C(=O)Nc1ccc(F)c(C(F)(F)F)c1 (stereo partly drawn) [compound 382], the EC50 was 118 nM. Work on COc1ccc(-c2cc(C(OC(=O)NC34CC(C3)C4)C(F)F)ccc2F)cc1C(=O)N[C@@H]1C2CCC(/C2=C/C2CC2)[C@@H]1C(=O)Nc1ccc(F)c(C(F)(F)F)c1 (stereo partly drawn) [compound 232] yielded an EC50 of 1 nM. COc1ccc(C2=NOC3COCC23)cc1C(=O)N[C@H]1[C@@H](C(=O)NC2CCOC(C)(C)C2)[C@H]2CC[C@@H]1/C2=C\C1CC1 (single isomer, unassigned) [compound 679] was tested, and the EC50 was 563 nM. Molecule COc1cc(F)c(F)cc1C(=O)N[C@@H]1C2CCC(/C2=C/C2=CCCCC2)[C@@H]1C(=O)Nc1ccc(F)c(C(F)(F)F)c1 (stereo partly drawn) [compound 35] has an EC50 of 30 nM. COc1ccc(C2=NOC3COCC23)cc1C(=O)N[C@H]1[C@@H](C(=O)NCC2(C)COC2)[C@H]2CC[C@@H]1/C2=C\C1CC1 (stereo partly drawn) [compound 675] gave an EC50 of 485 nM. With CNC(=O)/C=C1\C2CCC1[C@H](C(=O)Nc1ccc(F)c(C(F)(F)F)c1)[C@@H]2NC(=O)c1cc(F)c(F)cc1OC (stereo partly drawn) [compound 73] the EC50 was 2400 nM. For COc1ccc(-c2ncc(CO)s2)cc1C(=O)N[C@H]1[C@@H](C(=O)Nc2ccc(F)c(C(F)(F)F)c2)[C@H]2CC[C@@H]1/C2=C\C1CCCC1 [compound 750], the EC50 was 3.5 nM. COc1ccc(-c2cc(C(C)O)on2)cc1C(=O)N[C@@H]1C2CCC(/C2=C/C2CC2)[C@@H]1C(=O)Nc1ccc(F)c(C(F)(F)F)c1 (stereo partly drawn) [compound 424] was tested, and the EC50 was 11 nM. COc1ccc(-c2cnc3cc(CO)ccn23)cc1C(=O)N[C@@H]1C2CCC(/C2=C/C2CC2)[C@@H]1C(=O)Nc1ccc(F)c(C(F)(F)F)c1 (stereo partly drawn) [compound 974] showed an EC50 of 4.5 nM. In the case of COCCOC1(C2CC(c3ccc(OC)c(C(=O)N[C@H]4[C@@H](C(=O)Nc5ccc(F)c(C(F)(F)F)c5)[C@H]5CC[C@@H]4/C5=C\C4CC4)c3)=NO2)CC1 (single isomer, unassigned) [compound 687], the EC50 is reported as 658 nM. COc1cc(F)c(F)cc1C(=O)N[C@@H]1C2CCC(/C2=C/c2ccccc2F)[C@@H]1C(=O)Nc1ccc(F)c(C(F)(F)F)c1 (stereo partly drawn) [compound 54] gave an EC50 of 160 nM.
